Data as given in PubChem BioAssay AID330 (DTP/NCI, 2004).
Where “and” joins values, the source holds several entries; their conditions need not be identical. Identical values can stand only once. Inconclusive results and toxic doses are left out.

Tested on: P388 leukemia ip, CD2F1 mice, survival T/C
Assay: NCI In Vivo Anticancer Drug Screen. Data for tumor model P388 Leukemia (intraperitoneal) in CD2F1 (CDF1) mice
Conditions: endpoint: median survival time, higher = longer survival
Summary of the method: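 Mice carrying the transplanted tumor received test compound or vehicle. Survival was recorded in each group, and the value is the treated-group measurement divided by that of the vehicle-treated control group.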

[1] = dose: 100.0 mg/kg/injection, schedule: Q01DX001 (ip), vehicle: saline with Tween-80
[2] = dose: 200.0 mg/kg/injection, schedule: Q01DX001 (ip), vehicle: saline with Tween-80
[3] = dose: 400.0 mg/kg/injection, schedule: Q01DX001 (ip), vehicle: saline with Tween-80
[4] = dose: 50.0 mg/kg/injection, schedule: Q01DX009 (ip), vehicle: saline
[5] = dose: 100.0 mg/kg/injection, schedule: Q01DX009 (ip), vehicle: saline
[6] = dose: 50.0 mg/kg/injection, schedule: Q01DX005 (ip), vehicle: saline with Tween-80
[7] = dose: 100.0 mg/kg/injection, schedule: Q01DX005 (ip), vehicle: saline with Tween-80
[8] = dose: 200.0 mg/kg/injection, schedule: Q01DX005 (ip), vehicle: saline with Tween-80
[9] = dose: 50.0 mg/kg/injection, schedule: Q01DX005 (ip), vehicle: saline
[10] = dose: 100.0 mg/kg/injection, schedule: Q01DX005 (ip), vehicle: saline
[11] = dose: 200.0 mg/kg/injection, schedule: Q01DX005 (ip), vehicle: saline
[12] = dose: 25.0 mg/kg/injection, schedule: Q01DX009 (ip), vehicle: other
[13] = dose: 12.5 mg/kg/injection, schedule: Q01DX009 (ip), vehicle: saline with Tween-80
[14] = dose: 50.0 mg/kg/injection, schedule: Q01DX005 (ip), vehicle: Klucel (hydroxypropylcellulose) (HPC)
[15] = dose: 100.0 mg/kg/injection, schedule: Q01DX005 (ip), vehicle: Klucel (hydroxypropylcellulose) (HPC)
[16] = dose: 200.0 mg/kg/injection, schedule: Q01DX005 (ip), vehicle: Klucel (hydroxypropylcellulose) (HPC)

COc1cc(/C=C/C(=O)NCCc2ccc(OCc3ccccc3)c(OC)c2)ccc1OCc1ccccc1
T/C [1]: 88 % of control
T/C [2]: 89 % of control
T/C [3]: 90 % of control

COC(=O)C1CCC(=O)N1Cc1cccs1 (configuration not stated)
T/C (dose: 60.0 mg/kg/injection, schedule: Q01DX005 (ip), vehicle: saline with Tween-80): 109 % of control
T/C (dose: 120.0 mg/kg/injection, schedule: Q01DX005 (ip), vehicle: saline with Tween-80): 104 % of control
T/C (dose: 240.0 mg/kg/injection, schedule: Q01DX005 (ip), vehicle: saline with Tween-80): 106 % of control

CCOC(=O)C/C(C)=N\N(C)C(N)=O
T/C [4]: 91 % of control
T/C [5]: 94 % of control

Cc1ccc2[nH]c3nc4cc(C)c(C)cc4nc3c2c1
T/C (dose: 6.25 mg/kg/injection, schedule: Q01DX005 (ip), vehicle: saline with Tween-80): 93 % of control
T/C (dose: 12.5 mg/kg/injection, schedule: Q01DX005 (ip), vehicle: saline with Tween-80): 93 % of control
T/C (dose: 25.0 mg/kg/injection, schedule: Q01DX005 (ip), vehicle: saline with Tween-80): 87 % of control
T/C [6]: 96 % of control
T/C [7]: 105 % of control
T/C [8]: 108 % of control

CCCCC(CC)C(=O)NCCCN(C)C (configuration not stated)
T/C [9]: 99 % of control
T/C [10]: 99 % of control
T/C [11]: 94 % of control

O=C(CC(C(=O)O)N1CCNCC1)c1ccc(Cl)cc1 (configuration not stated)
T/C [9]: 100 % of control
T/C [10]: 107 % of control
T/C [11]: 101 % of control

CCOC(=O)C1C(=O)N2C(=O)C(NC(C)=O)=C(O)C2C1c1ccc(C)cc1 (configuration not stated)
T/C (dose: 100.0 mg/kg/injection, schedule: Q04DX002 (ip), vehicle: saline with Tween-80): 100 % of control
T/C (dose: 200.0 mg/kg/injection, schedule: Q04DX002 (ip), vehicle: saline with Tween-80): 100 % of control
T/C (dose: 400.0 mg/kg/injection, schedule: Q04DX002 (ip), vehicle: saline with Tween-80): 104 % of control

CC1(C)N=C(N)N=C(N)N1NC(=O)c1cccc(Cl)c1
T/C (dose: 50.0 mg/kg/injection, schedule: Q04DX003 (ip), vehicle: saline): 110 % of control
T/C (dose: 100.0 mg/kg/injection, schedule: Q04DX003 (ip), vehicle: saline): 100 % of control
T/C (dose: 200.0 mg/kg/injection, schedule: Q04DX003 (ip), vehicle: saline): 105 % of control

O=C(NC(Cc1ccsc1)C(=O)O)c1ccccc1 (configuration not stated)
T/C [12]: 102 % of control
T/C (dose: 50.0 mg/kg/injection, schedule: Q01DX009 (ip), vehicle: other): 104 % of control
T/C (dose: 100.0 mg/kg/injection, schedule: Q01DX009 (ip), vehicle: other): 98 % of control

COc1ccc(/C=C2/Oc3c(OC)c(OC)cc(OC)c3C2=O)cc1
T/C [6]: 102 % of control
T/C [7]: 98 % of control
T/C [8]: 98 % of control

Cc1cc(N(CCCl)CCCl)ccc1CN1CCCN(Cc2ccc(N(CCCl)CCCl)cc2C)C1c1ccccc1O
T/C [13]: 123 % of control

CC(C1CC/C(=N/NC(N)=O)C1)[N+](=O)[O-] (configuration not stated)
T/C (dose: 12.5 mg/kg/injection, schedule: Q01DX009 (ip), vehicle: distilled water + Tween-80): 100 % of control
T/C (dose: 25.0 mg/kg/injection, schedule: Q01DX009 (ip), vehicle: distilled water + Tween-80): 91 % of control
T/C (dose: 50.0 mg/kg/injection, schedule: Q01DX009 (ip), vehicle: distilled water + Tween-80): 90 % of control
T/C (dose: 100.0 mg/kg/injection, schedule: Q01DX009 (ip), vehicle: distilled water + Tween-80): 100 % of control
T/C (dose: 200.0 mg/kg/injection, schedule: Q01DX009 (ip), vehicle: distilled water + Tween-80): 92 % of control

CCOC(=O)/C=C(/C)SC1=CC(=O)C=CC1=O
T/C [6]: 92 % of control
T/C [7]: 92 % of control
T/C [8]: 100 % of control

COC(=O)Nc1nc2ccc(-c3c(C)oc(C)c3C(=O)O)cc2[nH]1
T/C [6]: 97 % of control
T/C [7]: 97 % of control
T/C [8]: 87 % of control

CCOC(=O)C1=C(C)O/C(=C/C=C/c2ccccc2)C1=O
T/C (dose: 50.0 mg/kg/injection, schedule: Q01DX009 (ip), vehicle: Klucel (hydroxypropylcellulose) (HPC)): 102 % of control
T/C (dose: 100.0 mg/kg/injection, schedule: Q01DX009 (ip), vehicle: Klucel (hydroxypropylcellulose) (HPC)): 98 % of control
T/C (dose: 200.0 mg/kg/injection, schedule: Q01DX009 (ip), vehicle: Klucel (hydroxypropylcellulose) (HPC)): 103 % of control

CNc1ccc(Nc2c3ccccc3nc3ccccc23)cc1
T/C (dose: 6.25 mg/kg/injection, schedule: Q04DX002 (ip), vehicle: distilled water + Tween-80): 109 % of control
T/C (dose: 12.5 mg/kg/injection, schedule: Q04DX002 (ip), vehicle: distilled water + Tween-80): 120 % of control and 124 % of control
T/C (dose: 25.0 mg/kg/injection, schedule: Q04DX002 (ip), vehicle: distilled water + Tween-80): 118 % of control
T/C (dose: 50.0 mg/kg/injection, schedule: Q04DX002 (ip), vehicle: distilled water + Tween-80): 160 % of control
T/C (dose: 100.0 mg/kg/injection, schedule: Q04DX002 (ip), vehicle: distilled water + Tween-80): 194 % of control and 232 % of control

Cc1ccc2nc(NC(=O)N(CCCl)N=O)sc2c1
T/C (dose: 400.0 mg/kg/injection, schedule: Q04DX003 (ip), vehicle: saline with Tween-80): 168 % of control

[O-]c1cc2c3c(c1)c1cc4c(cc1c[n+]3C=C2)OCO4
T/C [12]: 123 % of control

Nc1cc2c3c(cccc3c1)C(=O)N2
T/C [1]: 106 % of control
T/C [2]: 106 % of control

[Cl][Pt+2][Cl].[NH-]C1CCCC1[NH-] (configuration not stated)
T/C (dose: 3.13 mg/kg/injection, schedule: Q04DX002 (ip), vehicle: saline with Tween-80): 158 % of control
T/C (dose: 6.25 mg/kg/injection, schedule: Q04DX002 (ip), vehicle: saline with Tween-80): 198 % of control and 190 % of control and 171 % of control
T/C (dose: 12.5 mg/kg/injection, schedule: Q04DX002 (ip), vehicle: saline with Tween-80): 210 % of control and 197 % of control and 222 % of control
T/C (dose: 25.0 mg/kg/injection, schedule: Q04DX002 (ip), vehicle: saline with Tween-80): 235 % of control and 112 % of control

COc1cc(CCN=Cc2cc(Cl)cc(Cl)c2O)c([N+](=O)[O-])cc1OC
T/C [14]: 93 % of control
T/C [15]: 102 % of control
T/C [16]: 111 % of control

COc1ccc2nc(CC(C)C)c3c(c2c1)-c1ccccc1C3=O
T/C [14]: 91 % of control
T/C [15]: 87 % of control
T/C [16]: 89 % of control

CSCCC(NC(=O)C(Cc1ccccc1)NC(=O)CNC(=O)C(C)NC(=O)C(N)Cc1ccc(O)cc1)C(N)=O (configuration not stated)
T/C (dose: 8.75 mg/kg/injection, schedule: Q01DX005 (ip), vehicle: saline): 103 % of control
T/C (dose: 17.5 mg/kg/injection, schedule: Q01DX005 (ip), vehicle: saline): 107 % of control
T/C (dose: 35.0 mg/kg/injection, schedule: Q01DX005 (ip), vehicle: saline): 100 % of control
T/C (dose: 70.0 mg/kg/injection, schedule: Q01DX005 (ip), vehicle: saline): 100 % of control
T/C (dose: 140.0 mg/kg/injection, schedule: Q01DX005 (ip), vehicle: saline): 104 % of control

C=CCOc1ccc(-c2ccccc2)cc1Br
T/C [14]: 108 % of control
T/C [15]: 102 % of control
T/C [16]: 100 % of control

COSc1ccc([N+](=O)[O-])cc1[N+](=O)[O-]
T/C [13]: 95 % of control
T/C (dose: 25.0 mg/kg/injection, schedule: Q01DX009 (ip), vehicle: saline with Tween-80): 96 % of control
T/C (dose: 25.0 mg/kg/injection, schedule: Q01DX009 (ip), vehicle: saline): 98 % of control
T/C (dose: 50.0 mg/kg/injection, schedule: Q01DX009 (ip), vehicle: saline with Tween-80): 103 % of control
T/C [4]: 102 % of control
T/C (dose: 100.0 mg/kg/injection, schedule: Q01DX009 (ip), vehicle: saline with Tween-80): 103 % of control
T/C [5]: 108 % of control
T/C (dose: 200.0 mg/kg/injection, schedule: Q01DX009 (ip), vehicle: saline): 111 % of control

CCN(CC)CCOc1ccc(C2=C(c3ccccc3)CCc3cc(OC)ccc32)cc1
T/C (dose: 100.0 mg/kg/injection, schedule: Q04DX003 (ip), vehicle: saline with Tween-80): 100 % of control
T/C (dose: 200.0 mg/kg/injection, schedule: Q04DX003 (ip), vehicle: saline with Tween-80): 104 % of control

COC(=O)C(Cl)(Cl)C1(c2ccccc2)OCC(C)(C)N1C(=O)C(Cl)Cl (configuration not stated)
T/C [1]: 100 % of control
T/C [2]: 100 % of control
T/C [3]: 100 % of control
